Reference: patent US20170197980A1, “N-(4-PHENYL)-N'-(3-FLUOROPHENYL)UREA DOCUSATE” (AbbVie Inc., priority 2014, published 2017)
Values after ≈ are worked out from the molar mass of the structure shown. “Also recorded” adds a separate entry of the source.

Assays:
Format in all cases: physicochemical
[1] = Solubility in organic solvents, potency measurement by HPLC
Protocol: In a glass vial, N-(4-{4-amino-7-[1-(2-hydroxyethyl)-1H-pyrazol-4-yl]thieno[3,2-c]pyridin-3-yl}phenyl)-N′-(3-fluorophenyl)urea free base (501 mg, 1.02 mmol) was slurried in 20 ml of THF using a magnetic stir bar. The free base was converted to the HCl salt in-situ by addition of 5.0 ml of aqueous 0.207 N HCl. Docusate sodium (465 mg, 1.05 mmol) was added and the mixture was stirred until all solids dissolved. Solvent was removed by rotoevaporation. Acetone, 15 ml, was added to the flask with mixing until most of the solid has dissolved, resulting in a suspension of NaCl particles. The sample was then filtered through a 0.45 µm syringe filter (to remove the NaCl particles) followed by rotoevaporation to remove acetone. The sample was placed on a vacuum line to dry for 2 hours. The above step was repeated with 15 ml acetone and filtration through a 0.22 µm filter. After removing the acetone by rotoevaporation, the sample was dried under vacuum overnight. The sample appears to be amorphous to the naked eye. […] Solubilities were determined by potency measurements using high-performance liquid chromatography (HPLC).

[2] = Solubility in SEDDs (lipid) vehicle, saturated solution
Protocol: A saturated solution of the docusate salt in the SEDDs vehicle and a saturated solution of the tosylate salt in the SEDDs vehicle were prepared. The SEDDs vehicle was 15 wt % Capmul® MCM C10, 50 wt % Polysorbate 80, and 35 wt % Miglyol 812.

[3] = Stability, droplet size (DLS) and appearance of the SEDD emulsion after 1:9 dilution in water
Protocol: The docusate:SEDD concentrate was diluted in water at a 1:9 ratio, resulting in an emulsion at a concentration of 2.3 mg/mL. […] The emulsion was stable at native pH 4 for more than 2 weeks at room temperature, with no significant change in particle size analysis by dynamic light scattering (DLS).
The tosylate:SEDD concentrate was diluted in water at a 1:9 ratio, resulting in an emulsion at a concentration of 2.3 mg/mL.

[4] = Microcentrifuge dissolution in simulated gastric and intestinal media (GB/IB transfer test); conditions: for dissolution in simulated gastric media: 0.01N HCl, pH 2.0, 1000 μg/mL; for dissolution in simulated intestinal media (IB): 0.5 wt % SIF powder in PBS, pH 6.5, 500 μg/mL
Protocol: Microcentrifuge dissolution of salts in simulated gastric and intestinal media
Dissolution of tosylate and docusate salts in simulated GB/IB transfer dissolution test was measured and compared to free base. The simulated gastric media was 0.01N HCl, pH 2.0 (concentration 1000 μg/mL), and the simulated intestinal media was 0.5 wt % SIF powder in PBS, pH 6.5 (500 μg/mL).
Once the pH is raised to intestinal pH, the drug converts back to a free base that precipitates.

Solubility in water = conditions: pH 7.4
[5] = 15 wt % Capmul MCM C10, 50 wt % Polysorbate 80, 35 wt % Miglyol 812

| solubility in tetrahydrofuran (THF) ([1]; THF) | solubility in acetone ([1]; acetone) [mg/mL] | solubility in dichloromethane ([1]; dichloromethane) [mg/mL] | solubility in ethanol ([1]; ethanol) [mg/mL] | solubility in the SEDD vehicle [2, 5] [mg/mL] | solubility in lipid vehicles (in words) ([2]; lipid vehicles) | dissolution in simulated gastric media [4] | dissolution in simulated intestinal media (IB) [4] | solubility in water (Solubility in water) | solubility ([1]; organic solvent or mixture) [mg/mL] | solubility ([2]; SEDDs vehicle, oil or lipid, thermodynamic from solid, 15 wt % Capmul MCM C10, 50 wt % Polysorbate 80, 35 wt % Miglyol 812, read-out: solubility in the SEDD vehicle) [mg/mL] | Structure (SMILES) | stability in emulsions (in words) [3] |
| --- | --- | --- | --- | --- | --- | --- | --- | --- | --- | --- | --- | --- |
|  |  |  |  | 2.7 (≈ 5.53 mM) |  | significant solubility at the lower pH | precipitates | less than 30 ng/ml |  |  | Nc1ncc(-c2cnn(CCO)c2)c2scc(-c3ccc(NC(=O)Nc4cccc(F)c4)cc3)c12 [free base, N-(4-{4-amino-7-[1-(2-hydroxyethyl)-1H-pyrazol-4-yl]thieno[3,2-c]pyridin-3-yl}phenyl)-N′-(3-fluorophenyl)urea free base] |  |
|  |  |  |  |  |  | significant solubility at the lower pH | precipitates |  | > 25 | 22 | Cc1ccc(S(=O)(=O)O)cc1.Nc1ncc(-c2cnn(CCO)c2)c2scc(-c3ccc(NC(=O)Nc4cccc(F)c4)cc3)c12 [tosylate salt, N-(4-{4-amino-7-[1-(2-hydroxyethyl)-1H-pyrazol-4-yl]thieno[3,2-c]pyridin-3-yl}phenyl)-N′-(3-fluorophenyl)urea tosylate salt] |  |

| Structure (SMILES) | solubility in tetrahydrofuran (THF) ([1]; THF) | solubility in acetone ([1]; acetone) [mg/mL] | solubility in dichloromethane ([1]; dichloromethane) [mg/mL] | solubility in ethanol ([1]; ethanol) [mg/mL] | solubility in the SEDD vehicle [2, 5] [mg/mL] | solubility in lipid vehicles (in words) ([2]; lipid vehicles) | dissolution in simulated gastric media [4] | dissolution in simulated intestinal media (IB) [4] | solubility in water (Solubility in water) | solubility ([1]; organic solvent or mixture) [mg/mL] | solubility ([2]; SEDDs vehicle, oil or lipid, thermodynamic from solid, 15 wt % Capmul MCM C10, 50 wt % Polysorbate 80, 35 wt % Miglyol 812, read-out: solubility in the SEDD vehicle) [mg/mL] | stability in emulsions (in words) [3] |
| --- | --- | --- | --- | --- | --- | --- | --- | --- | --- | --- | --- | --- |
| CCCCC(CC)COC(=O)CC(C(=O)OCC(CC)CCCC)S(=O)(=O)O.Nc1ncc(-c2cnn(CCO)c2)c2scc(-c3ccc(NC(=O)Nc4cccc(F)c4)cc3)c12 [docusate salt, N-(4-{4-amino-7-[1-(2-hydroxyethyl)-1H-pyrazol-4-yl]thieno[3,2-c]pyridin-3-yl}phenyl)-N′-(3-fluorophenyl)urea docusate salt] | greater than 45 mg/ml | > 47 | > 75 | > 51 | 23 | high solubility in lipid vehicles | does not dissolve in acidic pH | significantly higher solubility profile during the first 90 minutes in IB than either free base or the tosylate salt; also recorded: appreciable solubility in IB solution |  |  |  | remain stable in emulsions over a period of several days |
